Experimental data taken from US12595253B2, “Benzamides of pyrazolylamino-pyrimidinyl derivatives, and compositions and methods thereof” (LYNK PHARMACEUTICALS CO. LTD., priority 2019, dated 2026).

Legend:
Type in all cases: biochemical
JAK2 = target: T1, JAK2 (Homo sapiens, UniProt O60674); assay: JAK2 microfluidic kinase assay (Caliper EZ Reader II, FAM labeled peptide substrate); conditions: IC50 JAK2 ([…]) (Km ATP), Km ATP
T1 construct: purchased Carna Biosciences
Summary of the method: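 Activity measured in 50 mM HEPES, 0.01% Brij35, 10 mM MgCl2, 2 mM DTT by microfluidic separation of phosphorylated FAM peptide. Enzyme conditions set for 10% substrate conversion.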

JAK1 = target: T2, JAK1 (Homo sapiens, UniProt P23458); assay: JAK1 microfluidic kinase assay (Caliper EZ Reader II, FAM labeled peptide substrate); conditions: IC50 JAK1 (5 nM) (1 m MATP), JAK1 5 nM, 1 mM ATP
T2 construct: purchased Carna Biosciences
T2 sequence (P23458 whole entry): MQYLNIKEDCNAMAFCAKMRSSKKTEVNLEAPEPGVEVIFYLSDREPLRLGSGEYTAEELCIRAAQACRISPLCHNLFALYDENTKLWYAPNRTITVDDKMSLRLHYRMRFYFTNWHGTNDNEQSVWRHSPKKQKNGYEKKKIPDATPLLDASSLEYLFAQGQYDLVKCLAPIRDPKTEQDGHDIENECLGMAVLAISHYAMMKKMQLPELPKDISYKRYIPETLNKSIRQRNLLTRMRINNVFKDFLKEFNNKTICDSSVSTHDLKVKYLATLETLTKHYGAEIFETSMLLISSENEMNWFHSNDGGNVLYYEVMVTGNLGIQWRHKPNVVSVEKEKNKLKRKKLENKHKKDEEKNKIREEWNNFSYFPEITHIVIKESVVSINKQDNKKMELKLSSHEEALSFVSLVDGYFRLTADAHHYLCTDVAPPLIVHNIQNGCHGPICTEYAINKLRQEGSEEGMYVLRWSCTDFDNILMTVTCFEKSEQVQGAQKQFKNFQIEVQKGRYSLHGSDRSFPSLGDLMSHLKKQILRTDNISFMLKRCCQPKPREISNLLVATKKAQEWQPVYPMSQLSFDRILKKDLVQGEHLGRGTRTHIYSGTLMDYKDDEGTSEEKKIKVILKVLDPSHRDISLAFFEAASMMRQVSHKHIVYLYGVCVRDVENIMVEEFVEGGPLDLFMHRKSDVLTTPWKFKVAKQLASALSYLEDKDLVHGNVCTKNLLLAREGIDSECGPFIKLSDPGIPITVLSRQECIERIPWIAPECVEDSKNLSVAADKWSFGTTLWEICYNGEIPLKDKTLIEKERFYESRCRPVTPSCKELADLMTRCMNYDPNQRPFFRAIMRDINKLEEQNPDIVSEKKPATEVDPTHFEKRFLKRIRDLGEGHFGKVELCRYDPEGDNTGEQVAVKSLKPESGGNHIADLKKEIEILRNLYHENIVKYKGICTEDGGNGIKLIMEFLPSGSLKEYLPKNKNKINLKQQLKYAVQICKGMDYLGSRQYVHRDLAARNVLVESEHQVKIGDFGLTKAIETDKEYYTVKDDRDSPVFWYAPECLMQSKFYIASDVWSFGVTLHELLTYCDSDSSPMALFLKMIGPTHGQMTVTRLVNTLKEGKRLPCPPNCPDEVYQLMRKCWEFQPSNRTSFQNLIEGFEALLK
Method: (§1) Compounds were tested against JAK1, JAK2, JAK2V617F and TYK2. Assay Formats: JAK activity was determined in the reaction buffer 50 mM HEPES, 0.01% Brij35, 10 mM MgCl2, 2 mM DTT by a microfluidic assay. The phosphorylation of a FAM labeled peptide substrate was monitored in the Caliper EZ Reader II (Perkin Elmer). The assay condition for each batch of enzyme (Carna Biosciences) was optimized to obtain 10% conversion rate of peptide substrate. The test compounds were dissolved in DMSO to a stock concentration of 10 mM. 3-fold serially diluted compounds with top concentration of 5 μM were pre-incubated with JAK1, JAK2, JAK2V617F or TYK2 at indicated concentrations for 10 min at ambient temperature. The final DMSO concentration of assay mixture was 1%. […] The reaction was stopped by adding 50 mM EDTA. […] The percent inhibition was calculated by the following formula. % Inhibition=(Conversionmax−Conversionsample)/(Conversionmax−Conversionmin)*100 • Conversionmax means the conversion rate in the positive well without addition of compound • Conversionmin means the conversion rate in the well without addition of enzyme • Conversionsample means the conversion rate of test compounds The dose-response (percent inhibition) curve was plotted and IC50 values were determined by GraphPad software.

JAK2V617F = target: T3, JAK2V617F (Homo sapiens, UniProt O60674, V617F); assay: JAK2V617F microfluidic kinase assay (Caliper EZ Reader II, FAM labeled peptide substrate); conditions: JAK2V617F 2.5 nM, 1 mM ATP
T3 construct: purchased Carna Biosciences
T3 sequence (O60674 whole entry V617F): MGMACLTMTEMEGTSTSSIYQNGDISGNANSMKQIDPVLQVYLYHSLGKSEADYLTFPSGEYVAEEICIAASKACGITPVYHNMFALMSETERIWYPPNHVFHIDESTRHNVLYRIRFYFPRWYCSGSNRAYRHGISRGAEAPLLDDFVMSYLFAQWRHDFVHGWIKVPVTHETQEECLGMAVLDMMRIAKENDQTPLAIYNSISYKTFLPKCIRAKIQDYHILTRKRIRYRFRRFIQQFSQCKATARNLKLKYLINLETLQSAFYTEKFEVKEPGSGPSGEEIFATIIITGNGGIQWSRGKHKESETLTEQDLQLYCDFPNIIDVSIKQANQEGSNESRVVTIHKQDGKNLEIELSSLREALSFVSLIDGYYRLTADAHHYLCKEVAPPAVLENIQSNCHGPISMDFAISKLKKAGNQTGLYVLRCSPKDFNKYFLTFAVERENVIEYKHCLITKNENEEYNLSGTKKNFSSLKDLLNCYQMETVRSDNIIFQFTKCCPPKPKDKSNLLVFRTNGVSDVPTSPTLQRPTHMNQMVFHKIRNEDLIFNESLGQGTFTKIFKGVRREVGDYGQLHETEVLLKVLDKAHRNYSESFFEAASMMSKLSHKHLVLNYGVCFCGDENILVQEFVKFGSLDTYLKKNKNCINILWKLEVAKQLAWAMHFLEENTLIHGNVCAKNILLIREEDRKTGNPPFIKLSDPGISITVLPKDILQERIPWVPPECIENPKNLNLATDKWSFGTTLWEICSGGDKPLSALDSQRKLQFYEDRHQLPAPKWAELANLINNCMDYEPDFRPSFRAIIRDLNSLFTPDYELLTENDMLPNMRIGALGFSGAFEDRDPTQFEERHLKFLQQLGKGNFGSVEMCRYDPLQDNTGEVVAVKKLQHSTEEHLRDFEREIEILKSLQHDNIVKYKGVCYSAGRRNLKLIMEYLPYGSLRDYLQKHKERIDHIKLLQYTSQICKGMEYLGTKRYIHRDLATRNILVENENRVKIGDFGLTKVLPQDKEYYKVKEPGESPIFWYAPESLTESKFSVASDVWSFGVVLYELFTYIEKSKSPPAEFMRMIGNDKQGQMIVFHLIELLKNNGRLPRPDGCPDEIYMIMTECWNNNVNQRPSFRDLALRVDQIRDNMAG
Method: as §1

T1 sequence (O60674 whole entry): as the sequence (O60674 whole entry V617F) above, with F617V counted along it

An IC50 (JAK2) of 1.1 nM, an IC50 (JAK1) of 19.3 nM and an IC50 (JAK2V617F) of 73.9 nM were found for `Cn1cc(Nc2ncc(Cl)c(-c3ccc(C(=O)NCC(C)(C)C#N)cc3)n2)cn1` [Example 122, 4-(5-Chloro-2-((1-methyl-1H-pyrazol-4-yl)amino)pyrimidin-4-yl)-N-(2-cyano-2-methylpropyl)benzamide] in this work.
An IC50 (JAK1) of 26 nM and an IC50 (JAK2V617F) of 42.8 nM were found for `Cc1cnc(Nc2cnn(C3CN(C(=O)C4CC4)C3)c2)nc1-c1ccc(C(=O)N[C@@H](C)C#N)cc1` [Example 71, (S)—N-(1-cyanoethyl)-4-(2-((1-(1-(cyclopropanecarbonyl)azetidin-3-yl)-1H-pyrazol-4-yl)amino)-5-methylpyrimidin-4-yl)benzamide] in this work.
An IC50 (JAK1) of 2.22 nM and an IC50 (JAK2V617F) of 3.03 nM were found for `CC[C@@H](C#N)NC(=O)c1ccc(-c2nc(Nc3cnn(C4CCOCC4)c3)ncc2C)cc1` [Example 201, (S)—N-(1-cyanopropyl)-4-(5-methyl-2-((1-(tetrahydro-2H-pyran-4-yl)-1H-pyrazol-4-yl)amino)pyrimidin-4-yl)benzamide] in this work.
An IC50 (JAK1) of 17 nM and an IC50 (JAK2V617F) of 27 nM were found for `Cc1cnc(Nc2cnn(C3CCCOC3)c2)nc1-c1ccc(C(=O)NCC#N)cc1` (centres unmarked) [Example 67, N-(cyanomethyl)-4-(5-methyl-2-((1-(tetrahydro-2H-pyran-3-yl)-1H-pyrazol-4-yl)amino)pyrimidin-4-yl)benzamide] in this work.
An IC50 (JAK1) of 167 nM and an IC50 (JAK2V617F) of 52.6 nM were found for `CC(C)(C)C(=O)N1CCC(n2cc(Nc3ncc(F)c(-c4ccc(C(=O)NCC#N)cc4)n3)cn2)CC1` [Example 56, N-(cyanomethyl)-4-(5-fluoro-2-((1-(1-pivaloylpiperidin-4-yl)-1H-pyrazol-4-yl)amino)pyrimidin-4-yl)benzamide] in this work.
An IC50 (JAK1) of 4.14 nM and an IC50 (JAK2V617F) of 27.6 nM were found for `Cc1cnc(Nc2cnn(C3CC3)c2)nc1-c1ccc(C(=O)N[C@H](C#N)C(C)C)cc1` [Example 197, (S)—N-(1-Cyano-2-methylpropyl)-4-(2-((1-cyclopropyl-1H-pyrazol-4-yl)amino)-5-methylpyrimidin-4-yl)benzamide] in this work.
An IC50 (JAK1) of 43.5 nM and an IC50 (JAK2V617F) of 76.3 nM were found for `Cc1cnc(Nc2cnn(C3CCOCC3)c2)nc1-c1ccc(C(=O)NCCC(F)(F)F)cc1` [Example 77, 4-(5-Methyl-2-((1-(tetrahydro-2H-pyran-4-yl)-1H-pyrazol-4-yl)amino)pyrimidin-4-yl)-N-(3,3,3-trifluoropropyl)benzamide] in this work.
An IC50 (JAK1) of 15 nM and an IC50 (JAK2V617F) of 30.5 nM were found for `Cc1cnc(Nc2cnn([C@H]3CC[C@@H](C#N)CC3)c2)nc1-c1ccc(C(=O)N[C@@H](C)C#N)cc1` [Example 149, 4-(2-((1-(Cis-4-cyanocyclohexyl)-1H-pyrazol-4-yl)amino)-5-methylpyrimidin-4-yl)-N—((S)-1-cyanoethyl)benzamide] in this work.
An IC50 (JAK1) of 67.4 nM and an IC50 (JAK2V617F) of 245 nM were found for `C[C@@H](C#N)NC(=O)c1ccc(-c2nc(Nc3cnn(C4CC4)c3)ncc2Cl)cn1` [Example 121, (S)-5-(5-chloro-2-((1-cyclopropyl-1H-pyrazol-4-yl)amino)pyrimidin-4-yl)-N-(1-cyanoethyl)picolinamide] in this work.
An IC50 (JAK1) of 14.3 nM and an IC50 (JAK2V617F) of 21.9 nM were found for `Cc1cnc(Nc2cnn(C3C[C@H]4CC[C@@H](C3)O4)c2)nc1-c1ccc(C(=O)NCC#N)cc1` (stereo partly drawn) [Example 69, 4-(2-((1-((1R,5S)-8-oxabicyclo[3.2.1]octan-3-yl)-1H-pyrazol-4-yl)amino)-5-methylpyrimidin-4-yl)-N-(cyanomethyl)benzamide] in this work.
An IC50 (JAK1) of 1.5 nM and an IC50 (JAK2V617F) of 42.6 nM were found for `CC[C@@H](C#N)NC(=O)c1ccc(-c2nc(Nc3cnn(C4CC4)c3)ncc2C)cc1` [Example 193, (S)—N-(1-cyanopropyl)-4-(2-((1-cyclopropyl-1H-pyrazol-4-yl)amino)-5-methylpyrimidin-4-yl)benzamide] in this work.
An IC50 (JAK1) of 27.2 nM and an IC50 (JAK2V617F) of 4.54 nM were found for `Cc1cnc(Nc2cnn(C3CC4CCC(C3)N4C(=O)C3(C)CC3)c2)nc1-c1ccc(C(=O)NCC#N)cc1` [Example 65, N-(cyanomethyl)-4-(5-methyl-2-((1-((1R,3r,5S)-8-(1-methylcyclopropanecarbonyl)-8-azabicyclo[3.2.1]octan-3-yl)-1H-pyrazol-4-yl)amino)pyrimidin-4-yl)benzamide] in this work.
An IC50 (JAK1) of 10.8 nM and an IC50 (JAK2V617F) of 19.9 nM were found for `Cc1cnc(Nc2cnn([C@H]3CC[C@H](C#N)CC3)c2)nc1-c1ccc(C(=O)NCC#N)cc1` [Example 147, 4-(2-((1-(Trans-4-cyanocyclohexyl)-1H-pyrazol-4-yl)amino)-5-methylpyrimidin-4-yl)-N-(cyanomethyl)benzamide] in this work.
An IC50 (JAK1) of 480 nM and an IC50 (JAK2V617F) of 1890 nM were found for `Cc1cnc(Nc2cnn(C3CC(F)(F)C3)c2)nc1-c1ccc(C(=O)N[C@@H](C)C#N)cc1` [Example 155, (S)—N-(1-cyanoethyl)-4-(2-((1-(3,3-difluorocyclobutyl)-1H-pyrazol-4-yl)amino)-5-methylpyrimidin-4-yl)benzamide] in this work.
An IC50 (JAK1) of 11.1 nM and an IC50 (JAK2V617F) of 2.17 nM were found for `Cc1cnc(Nc2cnn(C3CCC(F)(F)CC3)c2)nc1-c1ccc(C(=O)N[C@@H](C)C#N)cc1` [Example 85, (S)—N-(1-cyanoethyl)-4-(2-((1-(4,4-difluorocyclohexyl)-1H-pyrazol-4-yl)amino)-5-methylpyrimidin-4-yl)benzamide] in this work.
An IC50 (JAK1) of 7.47 nM and an IC50 (JAK2V617F) of 6.93 nM were found for `Cc1cnc(Nc2cnn(C3CCOCC3)c2)nc1-c1ccc(C(=O)NCC(F)(F)F)cc1` [Example 76, 4-(5-Methyl-2-((1-(tetrahydro-2H-pyran-4-yl)-1H-pyrazol-4-yl)amino)pyrimidin-4-yl)-N-(2,2,2-trifluoroethyl)benzamide] in this work.
An IC50 (JAK1) of 5.65 nM and an IC50 (JAK2V617F) of 33.5 nM were found for `Cc1cnc(Nc2cnn(C3CC3)c2)nc1-c1ccc(C(=O)N[C@H](C#N)C2CC2)cc1` [Example 194, (S)—N-(cyano(cyclopropyl)methyl)-4-(2-((1-cyclopropyl-1H-pyrazol-4-yl)amino)-5-methylpyrimidin-4-yl)benzamide] in this work.
An IC50 (JAK1) of 51.5 nM and an IC50 (JAK2V617F) of 84.2 nM were found for `Cc1cnc(Nc2cnn(C3CCOCC3)c2)nc1-c1ccc(C(=O)N[C@H](C)C#N)cc1` [Example 96, (R)—N-(1-cyanoethyl)-4-(5-methyl-2-((1-(tetrahydro-2H-pyran-4-yl)-1H-pyrazol-4-yl)amino)pyrimidin-4-yl)benzamide] in this work.
An IC50 (JAK1) of 22.2 nM and an IC50 (JAK2V617F) of 33.1 nM were found for `CC(=O)N1CC(n2cc(Nc3ncc(C)c(-c4ccc(C(=O)N[C@@H](C)C#N)cc4)n3)cn2)C1` [Example 157] in this work.
An IC50 (JAK1) of 33.7 nM and an IC50 (JAK2V617F) of 40.9 nM were found for `Cc1cnc(Nc2cnn(C3CC4CCC(C3)N4C(=O)C3CC3)c2)nc1-c1ccc(C(=O)NCC#N)cc1` [Example 64, N-(cyanomethyl)-4-(2-((1-((1R,3r,5S)-8-(cyclopropanecarbonyl)-8-azabicyclo[3.2.1]octan-3-yl)-1H-pyrazol-4-yl)amino)-5-methylpyrimidin-4-yl)benzamide] in this work.
An IC50 (JAK1) of 235 nM and an IC50 (JAK2V617F) of 283 nM were found for `N#CCNC(=O)c1ccc(-c2nc(Nc3cnn(C4CCOCC4)c3)ncc2C(F)(F)F)cc1` [Example 153, N-(cyanomethyl)-4-(2-((1-(tetrahydro-2H-pyran-4-yl)-1H-pyrazol-4-yl)amino)-5-(trifluoromethyl)pyrimidin-4-yl)benzamide] in this work.
An IC50 (JAK1) of 5.02 nM and an IC50 (JAK2V617F) of 3.06 nM were found for `CC[C@@H](C#N)NC(=O)c1ccc(-c2nc(Nc3cnn(C4CCOCC4)c3)ncc2Cl)cc1` [Example 203, (S)-4-(5-chloro-2-((1-(tetrahydro-2H-pyran-4-yl)-1H-pyrazol-4-yl)amino)pyrimidin-4-yl)-N-(1-cyanopropyl)benzamide] in this work.
An IC50 (JAK1) of 13.5 nM and an IC50 (JAK2V617F) of 14.1 nM were found for `N#CCNC(=O)c1ccc(-c2nc(Nc3cnn(C4CCOCC4)c3)ncc2Cl)cc1` [Example 146, 4-(5-chloro-2-((1-(tetrahydro-2H-pyran-4-yl)-1H-pyrazol-4-yl)amino)pyrimidin-4-yl)-N-(cyanomethyl)benzamide] in this work.
An IC50 (JAK1) of 13.7 nM and an IC50 (JAK2V617F) of 34.6 nM were found for `Cc1cnc(Nc2cnn([C@H]3CC[C@@H](C#N)CC3)c2)nc1-c1ccc(C(=O)NCC#N)cc1` [Example 148, 4-(2-((1-(Cis-4-cyanocyclohexyl)-1H-pyrazol-4-yl)amino)-5-methylpyrimidin-4-yl)-N-(cyanomethyl)benzamide] in this work.
An IC50 (JAK1) of 14.4 nM and an IC50 (JAK2V617F) of 4.18 nM were found for `Cc1cnc(Nc2cnn(C3CCN(C(=O)C4(O)CC4)CC3)c2)nc1-c1ccc(C(=O)NCC#N)cc1` [Example 74, N-(cyanomethyl)-4-(2-((1-(1-(1-hydroxycyclopropanecarbonyl)piperidin-4-yl)-1H-pyrazol-4-yl)amino)-5-methylpyrimidin-4-yl)benzamide] in this work.
An IC50 (JAK1) of 28 nM and an IC50 (JAK2V617F) of 33.6 nM were found for `Cc1cnc(Nc2cnn(C3CCOC(C)C3)c2)nc1-c1ccc(C(=O)NCC#N)cc1` (centres unmarked) [Example 72, N-(cyanomethyl)-4-(5-methyl-2-((1-(2-methyltetrahydro-2H-pyran-4-yl)-1H-pyrazol-4-yl)amino)pyrimidin-4-yl)benzamide] in this work.
